Patent US20240343722A1 (VIFOR (INTERNATIONAL) AG, priority 2021, published 2024)

Target: T1, ferroportin (Fpn) (Mus musculus, UniProt Q9JHI9)
T1 construct: endogenous in cells; host or cells: J774 mouse macrophage cell line, induced with Fe(III)NTA
T1 sequence (Q9JHI9 1-570): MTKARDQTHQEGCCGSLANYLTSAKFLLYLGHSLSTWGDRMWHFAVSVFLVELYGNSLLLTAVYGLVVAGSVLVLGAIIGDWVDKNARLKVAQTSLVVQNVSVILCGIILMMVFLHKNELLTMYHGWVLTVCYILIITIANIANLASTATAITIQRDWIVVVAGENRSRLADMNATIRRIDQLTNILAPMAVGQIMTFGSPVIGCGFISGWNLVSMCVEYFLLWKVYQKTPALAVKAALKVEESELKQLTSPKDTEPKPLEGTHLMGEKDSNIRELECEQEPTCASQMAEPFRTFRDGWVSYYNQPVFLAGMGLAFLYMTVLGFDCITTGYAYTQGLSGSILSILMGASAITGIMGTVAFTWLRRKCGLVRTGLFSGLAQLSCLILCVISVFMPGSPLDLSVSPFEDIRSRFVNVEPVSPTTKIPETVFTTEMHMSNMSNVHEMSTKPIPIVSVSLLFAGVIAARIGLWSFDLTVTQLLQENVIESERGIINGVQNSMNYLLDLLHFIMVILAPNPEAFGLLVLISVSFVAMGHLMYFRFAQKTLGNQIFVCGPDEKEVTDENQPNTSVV
Assay: Hepcidin Internalization Assay (J774)
Assay type: cell-based
Conditions: Average (AVE) IC50 of multiple measurements; inhibition of TMR-hepcidin (25 nM) internalization into J774 cells
From the text: This cellular assay allows quantification of the binding of hepcidin to ferroportin (Fpn) through microscopic detection of internalization of a fluorescently labeled hepcidin into J774 cells. […] Binding of hepcidin to Fpn triggers internalization and degradation of both hepcidin and Fpn. […] Therefore, microscopic detection of cell-associated TMR fluorescence is a measure of hepcidin binding to Fpn and internalization of hepcidin and Fpn. If TMR-hepcidin is prevented from binding to Fpn, cellular TMR fluorescence remains low (Durrenberger et al, 2013). The effect of small molecular weight Fpn inhibitor compounds in this assay was evaluated in vitro as described below. […] After removal of the paraformaldehyde solution, cells were washed 3 times with PBS leaving 100 μl per well and the plates were sealed with foil plate seal. TMR (530-550 nm excitation/575-625 nm emission/400 ms exposure time) and Hoechst 33342 (360-370 nm excitation/420-460 nm emission /10 ms exposure time) fluorescence images were acquired using a […] imager (Olympus) with a 20× high NA objective. […] The acquired image data was analysed with the […] analysis software. […] IC50 values were calculated with the Sum(Mean) raw data using “log(inhibitor) vs. response” curve fitting of Prism 5 software (GraphPad Software Inc., version 5.02). For each data set the fit of the “log(inhibitor) vs. response (three parameters)” model was compared to the fit of the “log(inhibitor) vs. response - Variable slope (four parameters)” model and the IC50 data of the preferred model was used.

COCCn1c(CCNCCc2nc(C(=O)NCc3ncccc3F)co2)nc2ccccc21 [Example 1, N-((3-fluoropyridin-2-yl)methyl)-2-(2-((2-(1-(2-methoxyethyl)-1 H-benzo[d]imidazol-2-yl)ethyl)amino)ethyl)oxazole-4-carboxamide]
IC50: 4 nM

CCCCn1c(CCNCCc2nc(C(=O)NCc3ncccc3F)co2)nc2ccccc21 [Example 2, 2-(2-((2-(1-butyl-1 H-benzo[d]imidazol-2-yl)ethyl)amino)ethyl)-N-((3-fluoropyridin-2-yl)methyl)oxazole-4-carboxamide]
IC50: 1 nM

O=C(NCc1ncccc1F)c1coc(CCNCCc2nc3ccccc3n2Cc2ccccn2)n1 [Example 3, N-((3-fluoropyridin-2-yl)methyl)-2-(2-((2-(1-(pyridin-2-ylmethyl)-1H-benzo[d]imidazol-2-yl)ethyl)amino)ethyl)oxazole-4-carboxamide]
IC50: 2 nM

Cn1c(CCNCCc2nc(C(=O)NCc3ncccc3F)co2)nc2ccccc21 [Example 5, N-((3-fluoropyridin-2-yl)methyl)-2-(2-((2-(1-methyl-1 H-benzo[d]imidazol-2-yl)ethyl)amino)ethyl)oxazole-4-carboxamide]
IC50: 7 nM

CCn1c(CCNCCc2nc(C(=O)NCc3ncccc3F)co2)nc2ccccc21 [Example 6, 2-(2-((2-(1-ethyl-1 H-benzo[d]imidazol-2-yl)ethyl)amino)ethyl)-N-((3-fluoropyridin-2-yl)methyl)oxazole-4-carboxamide]
IC50: 3.6 nM

CC(C)Cn1c(CCNCCc2nc(C(=O)NCc3ncccc3F)co2)nc2ccccc21 [Example 8, N-((3-fluoropyridin-2-yl)methyl)-2-(2-((2-(1-isobutyl-1 H-benzo[d]imidazol-2-yl)ethyl)amino)ethyl)oxazole-4-carboxamide]
IC50: 1.2 nM

CCCCn1c(CCNCCc2nc(C(=O)NCc3ncccc3Cl)co2)nc2ccccc21 [Example 9, 2-(2-((2-(1-butyl-1 H-benzo[d]imidazol-2-yl)ethyl)amino)ethyl)-N-((3-chloropyridin-2-yl)methyl)oxazole-4-carboxamide]
IC50: 1 nM

CCCCn1c(CCNCCc2nc(C(=O)NCc3ccccn3)co2)nc2ccccc21 [Example 11, 2-(2-((2-(1-butyl-1 H-benzo[d]imidazol-2-yl)ethyl)amino)ethyl)-N-(pyridin-2-ylmethyl)oxazole-4-carboxamide]
IC50: 2 nM

O=C(O)Cn1c(CCNCCc2nc(C(=O)NCc3ncccc3F)co2)nc2ccccc21 [Example 14, 2-(2-(2-((2-(4-(((3-fluoropyridin-2-yl)methyl)carbamoyl)oxazol-2-yl)ethyl)amino)ethyl)-1H-benzo[d]imidazol-1-yl)acetic acid]
IC50: 126 nM

CNC(=O)Cn1c(CCNCCc2nc(C(=O)NCc3ncccc3F)co2)nc2ccccc21 [Example 15, N-((3-fluoropyridin-2-yl)methyl)-2-(2-((2-(1-(2-(methylamino)-2-oxoethyl)-1 H-benzo[d]imidazol-2-yl)ethyl)amino)ethyl)oxazole-4-carboxamide]
IC50: 32 nM

NC(=O)Cn1c(CCNCCc2nc(C(=O)NCc3ncccc3F)co2)nc2ccccc21 [Example 16, 2-(2-((2-(1-(2-amino-2-oxoethyl)-1H-benzo[d]imidazol-2-yl)ethyl)amino)ethyl)-N-((3-fluoropyridin-2-yl)methyl)oxazole-4-carboxamide]
IC50: 181 nM

O=C(NCc1ncccc1F)c1coc(CCNCCc2nc3ccccc3n2Cc2ccccc2)n1 [Example 17, 2-(2-((2-(1-benzyl-1 H-benzo[d]imidazol-2-yl)ethyl)amino)ethyl)-N-((3-fluoropyridin-2-yl)methyl)oxazole-4-carboxamide]
IC50: 0.8 nM

O=C(NCc1ncccc1F)c1coc(CCNCCc2nc3ccccc3n2CCC2CC2)n1 [Example 21, 2-(2-((2-(1-(2-cyclopropylethyl)-1 H-benzo[d]imidazol-2-yl)ethyl)amino)ethyl)-N-((3-fluoropyridin-2-yl)methyl)oxazole-4-carboxamide]
IC50: 1 nM

O=C(NCc1ncccc1F)c1coc(CCNCCc2nc3ccccc3n2CCc2ccccc2)n1 [Example 23, N-((3-fluoropyridin-2-yl)methyl)-2-(2-((2-(1-phenethyl-1 H-benzo[d]imidazol-2-yl)ethyl)amino)ethyl)oxazole-4-carboxamide]
IC50: 1.9 nM

CNC(=O)CCn1c(CCNCCc2nc(C(=O)NCc3ncccc3F)co2)nc2ccccc21 [Example 25, N-((3-fluoropyridin-2-yl)methyl)-2-(2-((2-(1-(3-(methylamino)-3-oxopropyl)-1 H-benzo[d]imidazol-2-yl)ethyl)amino)ethyl)oxazole-4-carboxamide]
IC50: 7 nM

Cc1noc(C)c1CCn1c(CCNCCc2nc(C(=O)NCc3ncccc3F)co2)nc2ccccc21 [Example 30, 2-(2-((2-(1-(2-(3,5-dimethylisoxazol-4-yl)ethyl)-1 H-benzo[d]imidazol-2-yl)ethyl)amino)ethyl)-N-((3-fluoropyridin-2-yl)methyl)oxazole-4-carboxamide]
IC50: 1.3 nM

O=C(NCc1ncccc1F)c1coc(CCNCCc2nc3ccccc3n2CCc2ncco2)n1 [Example 31, N-((3-fluoropyridin-2-yl)methyl)-2-(2-((2-(1-(2-(oxazol-2-yl)ethyl)-1 H-benzo[d]imidazol-2-yl)ethyl)amino)ethyl)oxazole-4-carboxamide]
IC50: 2.8 nM

Cn1ccnc1CCn1c(CCNCCc2nc(C(=O)NCc3ncccc3F)co2)nc2ccccc21 [Example 34, N-((3-fluoropyridin-2-yl)methyl)-2-(2-((2-(1-(2-(1-methyl-1 H-imidazol-2-yl)ethyl)-1 H-benzo[d]imidazol-2-yl)ethyl)amino)ethyl)oxazole-4-carboxamide]
IC50: 7.4 nM

O=C(NCc1ncccc1F)c1coc(CCNCCc2nc3ccccc3n2CCc2ccccn2)n1 [Example 35, N-((3-fluoropyridin-2-yl)methyl)-2-(2-((2-(1-(2-(pyridin-2-yl)ethyl)-1H-benzo[d]imidazol-2-yl)ethyl)amino)ethyl)oxazole-4-carboxamide]
IC50: 2 nM

CCCCn1c(CCNCCc2nc(C(=O)NCc3ncccc3F)co2)nc2cc3c(cc21)OCCO3 [Example 37, 2-(2-((2-(1-butyl-6,7-dihydro-1H-[1,4]dioxino[2′,3′:4,5]benzo[1,2-d]imidazol-2-yl)ethyl)amino)ethyl)-N-((3-fluoropyridin-2-yl)methyl)oxazole-4-carboxamide]
IC50: 0.9 nM

CCCCn1c(CCNCCc2nc(C(=O)NCc3ncccc3F)co2)nc2cc(-c3ccccc3OC)ccc21 [Example 39, 2-(2-((2-(1-butyl-5-(2-methoxyphenyl)-1 H-benzo[d]imidazol-2-yl)ethyl)amino)ethyl)-N-((3-fluoropyridin-2-yl)methyl)oxazole-4-carboxamide]
IC50: 1.7 nM

CCCCn1c(CCNCCc2nc(C(=O)NCc3ncccc3F)co2)nc2ccc(-c3ccccc3OC)cc21 [Example 40, 2-(2-((2-(1-butyl-6-(2-methoxyphenyl)-1 H-benzo[d]imidazol-2-yl)ethyl)amino)ethyl)-N-((3-fluoropyridin-2-yl)methyl)oxazole-4-carboxamide]
IC50: 1.8 nM

CCCCn1c(CCNCCc2nc(C(=O)NCc3ncccc3F)co2)nc2ccc(-c3ccccc3)cc21 [Example 41, 2-(2-((2-(1-butyl-6-phenyl-1 H-benzo[d]imidazol-2-yl)ethyl)amino)ethyl)-N-((3-fluoropyridin-2-yl)methyl)oxazole-4-carboxamide]
IC50: 4 nM

CCCCn1c(CCNCCc2nc(C(=O)NCc3ncccc3F)co2)nc2cc(-c3ccccc3)ccc21 [Example 42, 2-(2-((2-(1-butyl-5-phenyl-1 H-benzo[d]imidazol-2-yl)ethyl)amino)ethyl)-N-((3-fluoropyridin-2-yl)methyl)oxazole-4-carboxamide]
IC50: 2.4 nM

O=C(NCc1ncccc1F)c1coc(CCNCCc2nc3ccccc3n2CCc2nc3ccccc3[nH]2)n1 [Example 44, 2-(2-((2-(1-(2-(1H-benzo[d]imidazol-2-yl)ethyl)-1 H-benzo[d]imidazol-2-yl)ethyl)amino)ethyl)-N-((3-fluoropyridin-2-yl)methyl)oxazole-4-carboxamide]
IC50: 1 nM
